Test results reported in US10519134B2, “Pyrazole compounds and methods of making and using same” (Lundbeck La Jolla Research Center, Inc., priority 2015, dated 2019).

Columns and labels:
MAGL [1] = biological target: T1, MAGL (Mus musculus, UniProt O35678); test: In vitro competitive activity-based protein profiling (mouse), MAGL gel band; assay type: biochemical; conditions: for IC50: mouse; for inhibition at 1 µM: read-out: MAGL % inh. 1 μM
T1 construct: Proteomes (mouse brain membrane fraction or cell lysates); from tissue; host or cells: mouse brain membrane fraction (or cell lysates)
T1 sequence (O35678 1-303): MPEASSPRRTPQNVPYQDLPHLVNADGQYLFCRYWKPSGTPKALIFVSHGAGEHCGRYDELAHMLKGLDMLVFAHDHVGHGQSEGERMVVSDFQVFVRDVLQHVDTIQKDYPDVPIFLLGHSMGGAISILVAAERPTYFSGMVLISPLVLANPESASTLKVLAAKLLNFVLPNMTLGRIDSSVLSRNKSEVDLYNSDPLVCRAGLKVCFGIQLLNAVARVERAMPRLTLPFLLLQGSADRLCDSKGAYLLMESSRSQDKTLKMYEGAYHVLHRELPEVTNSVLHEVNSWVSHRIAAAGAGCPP
Method in brief: (§1)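 Mouse brain membrane proteome or cell lysate (1.0 mg/mL total protein) was preincubated with varying inhibitor concentrations for 30 min at 37 °C, then labelled for 30 min at 37 °C with FP-Rh or HT-01 (50 μM stock in DMSO). Activity was read as fluorescent band intensity after SDS-PAGE.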

FAAH = biological target: T2, FAAH (Mus musculus, UniProt O08914); test: In vitro competitive activity-based protein profiling (mouse), FAAH gel band; assay type: biochemical; conditions: for IC50: mouse; for inhibition at 1 µM: read-out: FAAH % inh. 1 μM
T2 construct: Proteomes (mouse brain membrane fraction or cell lysates); from tissue; host or cells: mouse brain membrane fraction (or cell lysates)
T2 sequence (O08914 1-579): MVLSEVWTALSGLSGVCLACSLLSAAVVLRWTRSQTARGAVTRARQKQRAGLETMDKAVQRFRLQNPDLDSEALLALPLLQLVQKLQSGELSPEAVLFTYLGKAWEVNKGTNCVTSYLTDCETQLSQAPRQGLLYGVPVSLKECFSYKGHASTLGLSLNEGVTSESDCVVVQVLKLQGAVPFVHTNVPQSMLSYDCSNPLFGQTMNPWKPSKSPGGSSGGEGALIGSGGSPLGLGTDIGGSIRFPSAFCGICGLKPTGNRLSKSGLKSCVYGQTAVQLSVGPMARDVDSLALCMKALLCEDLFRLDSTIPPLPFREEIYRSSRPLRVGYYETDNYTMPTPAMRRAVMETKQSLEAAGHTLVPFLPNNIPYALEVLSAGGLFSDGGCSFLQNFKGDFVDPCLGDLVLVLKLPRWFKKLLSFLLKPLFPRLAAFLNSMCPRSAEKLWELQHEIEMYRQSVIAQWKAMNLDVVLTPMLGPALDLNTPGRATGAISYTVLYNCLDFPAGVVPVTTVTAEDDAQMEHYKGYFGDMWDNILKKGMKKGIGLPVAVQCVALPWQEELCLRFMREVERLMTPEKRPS
Method in brief: as §1

MAGL [2] = biological target: T1, MAGL; test: Mouse brain proteomes from inhibitor treated mice (oral gavage, sacrificed 4 h after administration); assay type: in vivo; conditions: read-out: MAGL % inh. 5 mg/kg
Method in brief: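 Wild-type C57Bl/6J mice got compound by oral gavage in polyethylene glycol vehicle. Brain proteomes were prepared 4 h after dosing and analyzed for serine hydrolase activity.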

SMILES	IC50 (MAGL [1])	inhibition at 1 µM (MAGL [1])	IC50 (FAAH)	inhibition at 1 µM (FAAH)	inhibition at 5 mg/kg (MAGL [2])
CC(=O)Nc1ccn(C(=O)N2CCC3(CCCN3Cc3ccc(C(F)(F)F)cc3OC3CCN(C4CC4)CC3)CC2)n1 [Example 81, N-(1-(1-(2-(1-cyclopropylpiperidin-4-yloxy)-4-(trifluoromethyl)benzyl)-1,8-diazaspiro[4.5]decane-8-carbonyl)-1H-pyrazol-3-yl)acetamide]	≤ 100 nM	≥ 75%	1000 to 10000 nM	0 to 25%	0 to 25%
CC(=O)Nc1ccn(C(=O)N2CCC3(CCCN3Cc3cc(OC4CCN(C5CC5)CC4)cc(C(F)(F)F)c3)CC2)n1 [Example 82, N-(1-(1-(3-(1-cyclopropylpiperidin-4-yloxy)-5-(trifluoromethyl)benzyl)-1,8-diazaspiro[4.5]decane-8-carbonyl)-1H-pyrazol-3-yl)acetamide]	≤ 100 nM	≥ 75%	1000 to 10000 nM	0 to 25%	0 to 25%
CC(=O)Nc1ccn(C(=O)N2CCC3(CCCN3Cc3ccc(C(F)(F)F)cc3Oc3cncnc3)CC2)n1 [Example 83, N-(1-(1-(2-(pyrimidin-5-yloxy)-4-(trifluoromethyl)benzyl)-1,8-diazaspiro[4.5]decane-8-carbonyl)-1H-pyrazol-3-yl)acetamide]	≤ 100 nM	≥ 75%	1000 to 10000 nM	0 to 25%	0 to 25%
CC(=O)Nc1ccn(C(=O)N2CCC3(CCCN3Cc3cc(Oc4cncnc4)cc(C(F)(F)F)c3)CC2)n1 [Example 84, N-(1-(1-(3-(pyrimidin-5-yloxy)-5-(trifluoromethyl)benzyl)-1,8-diazaspiro[4.5]decane-8-carbonyl)-1H-pyrazol-3-yl)acetamide]	≤ 100 nM	≥ 75%	1000 to 10000 nM	0 to 25%	0 to 25%
CC(=O)Nc1ccn(C(=O)N2CCC3(CCCN3Cc3ccc(C(F)(F)F)cc3Oc3nc4ccccc4s3)CC2)n1 [Example 85, N-(1-(1-(2-(benzo[d]thiazol-2-yloxy)-4-(trifluoromethyl)benzyl)-1,8-diazaspiro[4.5]decane-8-carbonyl)-1H-pyrazol-3-yl)acetamide]	≤ 100 nM	≥ 75%	1000 to 10000 nM	0 to 25%	0 to 25%
CC(=O)Nc1ccn(C(=O)N2CCC3(CCCN3Cc3cc(OC4CCS(=O)(=O)CC4)cc(C(F)(F)F)c3)CC2)n1 [Example 88, N-(1-(1-(3-((1,1-dioxidotetrahydro-2H-thiopyran-4-yl)oxy)-5-(trifluoromethyl)benzyl)-1,8-diazaspiro[4.5]decane-8-carbonyl)-1H-pyrazol-3-yl)acetamide]	≤ 100 nM	≥ 75%	1000 to 10000 nM	0 to 25%	0 to 25%
CC(=O)Nc1ccn(C(=O)N2CCC3(CCCN3Cc3cc(OCC(=O)N4CCCC4)cc(C(F)(F)F)c3)CC2)n1 [Example 90, N-(1-(1-(3-(2-oxo-2-(pyrrolidin-1-yl)ethoxy)-5-(trifluoromethyl)benzyl)-1,8-diazaspiro[4.5]decane-8-carbonyl)-1H-pyrazol-3-yl)acetamide]	≤ 100 nM	≥ 75%	1000 to 10000 nM	0 to 25%	0 to 25%
CC(=O)Nc1ccn(C(=O)N2CCC3(CCCN3Cc3ccc(C(F)(F)F)c(C)c3)CC2)n1 [Example 93, N-(1-(1-(3-methyl-4-(trifluoromethyl)benzyl)-1,8-diazaspiro[4.5]decane-8-carbonyl)-1H-pyrazol-3-yl)acetamide]	≤ 100 nM	≥ 75%	1000 to 10000 nM	0 to 25%	50 to 75%
CCc1cc(CN2CCCC23CCN(C(=O)n2ccc(NC(C)=O)n2)CC3)ccc1F [Example 95, N-(1-(1-(3-ethyl-4-fluorobenzyl)-1,8-diazaspiro[4.5]decane-8-carbonyl)-1H-pyrazol-3-yl)acetamide]	≤ 100 nM	≥ 75%	1000 to 10000 nM	0 to 25%	≥ 75%
CC(=O)Nc1ccn(C(=O)N2CCC3(CCCN3Cc3ccc(N4CCOCC4)c(C(F)(F)F)c3)CC2)n1 [Example 101, N-(1-(1-(4-morpholino-3-(trifluoromethyl)benzyl)-1,8-diazaspiro[4.5]decane-8-carbonyl)-1H-pyrazol-3-yl)acetamide]	≤ 100 nM	≥ 75%	1000 to 10000 nM	0 to 25%	25 to 50%
CC(=O)Nc1ccn(C(=O)N2CCC3(CCCN3Cc3ccc(N4CCCC4)c(C(F)(F)F)c3)CC2)n1 [Example 102, N-(1-(1-(4-(pyrrolidin-1-yl)-3-(trifluoromethyl)benzyl)-1,8-diazaspiro[4.5]decane-8-carbonyl)-1H-pyrazol-3-yl)acetamide]	≤ 100 nM	≥ 75%	1000 to 10000 nM	0 to 25%	0 to 25%
CC(=O)Nc1ccn(C(=O)N2CCC3(CCCN3Cc3ccc(Cl)c(N4CCOCC4)c3)CC2)n1 [Example 103, N-(1-(1-(4-chloro-3-morpholinobenzyl)-1,8-diazaspiro[4.5]decane-8-carbonyl)-1H-pyrazol-3-yl)acetamide]	≤ 100 nM	≥ 75%	1000 to 10000 nM	0 to 25%	0 to 25%
CC(=O)Nc1ccn(C(=O)N2CCC3(CCCN3Cc3ccc(Cl)c(N4CCCC4)c3)CC2)n1 [Example 104, N-(1-(1-(4-chloro-3-(pyrrolidin-1-yl)benzyl)-1,8-diazaspiro[4.5]decane-8-carbonyl)-1H-pyrazol-3-yl)acetamide]	≤ 100 nM	≥ 75%	1000 to 10000 nM	0 to 25%	0 to 25%
CC(=O)Nc1ccn(C(=O)N2CCC3(CCCN3Cc3ccc(C(F)(F)F)c(N4CCOCC4)c3)CC2)n1 [Example 105, N-(1-(1-(3-morpholino-4-(trifluoromethyl)benzyl)-1,8-diazaspiro[4.5]decane-8-carbonyl)-1H-pyrazol-3-yl)acetamide]	≤ 100 nM	≥ 75%	1000 to 10000 nM	0 to 25%	25 to 50%
CC(=O)Nc1ccn(C(=O)N2CCC3(CCCN3Cc3ccc(C(F)(F)F)c(N4CCCC4)c3)CC2)n1 [Example 106, N-(1-(1-(3-(pyrrolidin-1-yl)-4-(trifluoromethyl)benzyl)-1,8-diazaspiro[4.5]decane-8-carbonyl)-1H-pyrazol-3-yl)acetamide]	≤ 100 nM	≥ 75%	1000 to 10000 nM	0 to 25%	25 to 50%
CC(=O)Nc1ccn(C(=O)N2CCC3(CCCN3Cc3ccc(C(F)(F)F)c(C(N)=O)c3)CC2)n1 [Example 107, 5-((8-(3-acetamido-1H-pyrazole-1-carbonyl)-1,8-diazaspiro[4.5]decan-1-yl)methyl)-2-(trifluoromethyl)benzamide]	100 to 1000 nM	≥ 75%	1000 to 10000 nM	0 to 25%	0 to 25%
CC(=O)Nc1ccn(C(=O)N2CCC3(CCCN3Cc3ccc(C(N)=O)c(C(F)(F)F)c3)CC2)n1 [Example 109, 4-((8-(3-acetamido-1H-pyrazole-1-carbonyl)-1,8-diazaspiro[4.5]decan-1-yl)methyl)-2-(trifluoromethyl)benzamide]	≤ 100 nM	≥ 75%	1000 to 10000 nM	0 to 25%	0 to 25%
CS(=O)(=O)Nc1ccn(C(=O)N2CCN(Cc3cccc(Cl)c3N3CC[C@H](CF)C3)CC2)n1 [Example 121, (S)-N-(1-(4-(3-chloro-2-(3-(fluoromethyl)pyrrolidin-1-yl)benzyl)piperazine-1-carbonyl)-1H-pyrazol-3-yl) methanesulfonamide]	≤ 100 nM	≥ 75%	1000 to 10000 nM	0 to 25%	50 to 75%
